“Also recorded” adds a separate entry of the source.
Columns and labels:
recombinant SHIP1 = target: T1, recombinant SHIP1 (Homo sapiens, UniProt Q92835); assay: Malachite Green phosphatase assay for SHIP1 activity against PI(3,4,5)P3 substrate; type: biochemical
T1 sequence (Q92835 1-1189): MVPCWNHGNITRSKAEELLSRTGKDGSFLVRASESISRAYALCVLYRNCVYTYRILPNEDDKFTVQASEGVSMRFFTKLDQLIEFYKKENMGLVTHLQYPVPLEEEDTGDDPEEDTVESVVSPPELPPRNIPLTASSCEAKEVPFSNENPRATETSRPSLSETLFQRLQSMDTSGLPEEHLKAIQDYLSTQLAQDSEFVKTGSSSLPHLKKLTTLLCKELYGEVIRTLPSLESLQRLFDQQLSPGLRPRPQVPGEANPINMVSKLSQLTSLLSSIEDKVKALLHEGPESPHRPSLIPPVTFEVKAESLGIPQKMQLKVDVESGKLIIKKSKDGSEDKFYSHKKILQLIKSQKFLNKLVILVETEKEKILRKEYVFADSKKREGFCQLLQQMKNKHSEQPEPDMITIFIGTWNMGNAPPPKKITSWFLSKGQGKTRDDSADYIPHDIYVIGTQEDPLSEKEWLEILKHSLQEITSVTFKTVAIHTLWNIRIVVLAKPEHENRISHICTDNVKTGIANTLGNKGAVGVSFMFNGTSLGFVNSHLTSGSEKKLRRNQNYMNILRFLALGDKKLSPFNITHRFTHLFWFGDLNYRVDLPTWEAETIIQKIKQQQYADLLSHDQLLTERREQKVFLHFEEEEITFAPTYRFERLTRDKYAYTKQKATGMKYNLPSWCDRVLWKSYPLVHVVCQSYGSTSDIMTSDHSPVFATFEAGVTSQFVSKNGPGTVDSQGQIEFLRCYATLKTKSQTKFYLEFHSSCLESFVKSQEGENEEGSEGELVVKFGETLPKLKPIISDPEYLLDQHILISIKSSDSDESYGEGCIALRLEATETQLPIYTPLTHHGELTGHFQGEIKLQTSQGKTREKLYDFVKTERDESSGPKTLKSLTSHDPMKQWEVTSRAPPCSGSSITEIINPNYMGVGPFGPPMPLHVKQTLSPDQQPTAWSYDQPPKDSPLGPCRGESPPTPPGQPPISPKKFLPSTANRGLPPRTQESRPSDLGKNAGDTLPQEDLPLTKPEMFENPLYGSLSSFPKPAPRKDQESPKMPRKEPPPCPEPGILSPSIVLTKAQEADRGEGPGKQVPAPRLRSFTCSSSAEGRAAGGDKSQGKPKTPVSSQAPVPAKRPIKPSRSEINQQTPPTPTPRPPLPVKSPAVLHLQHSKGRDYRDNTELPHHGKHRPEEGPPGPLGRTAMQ
Procedure: Absorbance is recorded at 620 nm, smaller numbers indicate a lack of green color and inhibition of the phosphatase.
(§1) [Noto bene: DRV-IV-26=3A5AS]

MIR cell numbers = assay: MIR cell induction in treated mice; type: in vivo; settings: FIG. 6C, D
Procedure: as §1
The solubility of 3AC was assessed by calculating the distribution coefficient (CLogD). This calculation estimates the CLogD for 3AC at 7.17 indicating the molecule is very lipophilic. Thus, we have begun to develop novel 3AC analogs with increased aqueous solubility. One of these compounds, 3A5AS, has a CLogD of 3.33. Lipinski's rules (a common measure of small molecule pharmacokinetics) recommend a ClogD of <5 for in vivo applications.

For CCN [ethylamine], the “SHIP1 inhibition by lack of green color” value (recombinant SHIP1; SHIP1 malachite phosphatase assay, FIG. 1, visual readout) was “poor inhibitor”.

C[C@@]12CCC[C@H]1[C@@H]1CC[C@H]3C[C@H](N)CC[C@]3(C)[C@H]1CC2 [Example 3A5AS, 3α-amino-5α-androstane] was tested, and the “Concentration inducing a comparable MIR cell increase in vivo” value (MIR cell numbers) was 15 µM, the “Potency at inducing MIR cell numbers in vivo, compared with 3AC” value (MIR cell numbers) was “more potent” and the “Inhibition of recombinant SHIP1 activity in vitro, compared with 3AC” value (recombinant SHIP1; Malachite Green assay, PI(3,4,5)P3 substrate, FIG. 5B / FIG. 6A) was “equal inhibitory activity; also recorded: equally potent”.

CC(C)CCC[C@@H](C)[C@H]1CC[C@H]2[C@@H]3CCC4C[C@H](N)CC[C@]4(C)[C@H]3CC[C@]12C (some centres unmarked) [Example 3AC, reference compound] was tested, and the “Concentration inducing a comparable MIR cell increase in vivo” value (MIR cell numbers) was 60 µM.
